Measured values from US8912207B2, “2-aldoximino-5-fluoropyrimidine derivatives” (Dow AgroSciences, LLP., priority 2009, dated 2014).
Read-outs that look alike come from different tables or passages of the source.

Tests used:
[1] = test system: Mycosphaerella graminicola; anamorph: Septoria tritici; Bayer code SEPTTR; assay: Fungicidal activity: leaf blotch of wheat, one-day protectant (1DP) and three-day curative (3DC) tests on wheat plants; type: in vivo, Septoria tritici on wheat plants (variety Yuma); conditions: Zymoseptoria tritici, rating of % disease control vs untreated inoculated plants
Protocol: Evaluation of Fungicidal Activity: Leaf Blotch of Wheat (Mycosphaerella graminicola; anamorph: Septoria tritici; Bayer code […]) Wheat plants (variety Yuma) were grown from seed in a greenhouse in 50% mineral soil/50% soil-less Metro mix until the first leaf was fully emerged, with 7-10 seedlings per pot. These plants were inoculated with an aqueous spore suspension of Septoria tritici either prior to or after fungicide treatments. After inoculation the plants were kept in 100% relative humidity (one day in a dark dew chamber followed by two to three days in a lighted dew chamber) to permit spores to germinate and infect the leaf. The plants were then transferred to a greenhouse for disease to develop. The following table presents the activity of typical compounds of the present disclosure when evaluated in these experiments. The effectiveness of the test compounds in controlling disease was determined by assessing the severity of disease on treated plants, then converting the severity to percent control based on the level of disease on untreated, inoculated plants. In each case of Table III the rating scale is as follows: […]

[2] = 24 h, one-day protectant, read-out: SEPTTR 25 ppm 1DP
[3] = 24 h, one-day protectant, read-out: SEPTTR 100 ppm 1DP
[4] = 72 h, three-day curative, read-out: SEPTTR 25 ppm 3DC
[5] = 72 h, three-day curative, read-out: SEPTTR 100 ppm 3DC

SMILES	melting point	pest or weed control at 25 ppm [1, 2] [%]	pest or weed control at 100 ppm [1, 3] [%]	pest or weed control at 25 ppm [1, 4] [%]	pest or weed control at 100 ppm [1, 5] [%]
COc1ccc(C=NOc2ncc(F)c(N)n2)cc1 [Compound 12]	250 to 270 °C (dec.)	76 to 100	76 to 100	76 to 100	76 to 100
COc1ccc(C=NOc2ncc(F)c(N(C)C)n2)cc1 [Compound 53]	106 to 107 °C	0 to 25	0 to 25	0 to 25	0 to 25
CC=NOc1ncc(F)c(N)n1 [Compound 10]	102 to 105 °C	76 to 100	76 to 100	76 to 100	76 to 100
COc1ccc(C=NOc2ncc(F)c(N(C)Cc3ccc(OC)cc3)n2)cc1 [Compound 48]	46 to 50 °C	0 to 25	0 to 25	26 to 50	51 to 75
COc1ccc(C=NOc2ncc(F)c(N(C)Cc3ccccc3)n2)cc1 [Compound 38]	100 to 103 °C	0 to 25	0 to 25	26 to 50	51 to 75
CC(C)C=NOc1ncc(F)c(N(C)C)n1 [Compound 55]	90 to 92 °C	0 to 25	0 to 25	0 to 25	0 to 25
Nc1nc(ON=Cc2ccccc2)ncc1F [Compound 6]	151 to 153 °C	76 to 100	76 to 100	76 to 100	76 to 100
CN(C)/C=N/c1nc(ON=Cc2ccccc2Cl)ncc1F [Compound 3]	186 to 210 °C (dec.)	76 to 100	76 to 100	76 to 100	76 to 100
CC(C)C=NOc1ncc(F)c(N(C)Cc2ccccc2)n1 [Compound 40]	176 to 179 °C	0 to 25	0 to 25	0 to 25	51 to 75
COc1ccccc1C=NOc1ncc(F)c(N)n1 [Compound 9]	240 to 250 °C (dec.)	76 to 100	76 to 100	76 to 100	76 to 100
CC=NOc1ncc(F)c(NCc2ccccc2F)n1 [Compound 20]	99 to 100 °C	26 to 50	51 to 75	51 to 75	76 to 100
CC(C)C=NOc1ncc(F)c(N(C)Cc2ccc(Cl)cc2)n1 [Compound 45]	224 to 228 °C (dec.)	0 to 25	0 to 25	26 to 50	0 to 25

Second part, led by results:

melting point	SMILES	pest or weed control at 25 ppm [1, 2] [%]	pest or weed control at 100 ppm [1, 3] [%]	pest or weed control at 25 ppm [1, 4] [%]	pest or weed control at 100 ppm [1, 5] [%]
144 to 146 °C	CN(C)c1nc(ON=Cc2ccc(Cl)cc2)ncc1F [Compound 52]	0 to 25	0 to 25	0 to 25	26 to 50
119 to 121 °C	Fc1cnc(ON=Cc2ccc(Cl)cc2)nc1NCc1ccc(Cl)cc1 [Compound 27]	0 to 25	26 to 50	26 to 50	51 to 75
116 to 117 °C	CC=NOc1ncc(F)c(NCc2ccc(Cl)cc2)n1 [Compound 29]	0 to 25	26 to 50	0 to 25	51 to 75
200 to 205 °C	CC(C)C=NOc1ncc(F)c(NCc2ccc(Cl)cc2)n1 [Compound 30]	0 to 25	26 to 50	0 to 25	26 to 50
111 to 114 °C	Fc1cnc(ON=Cc2ccc(Cl)cc2)nc1NCc1ccccc1 [Compound 22]	0 to 25	76 to 100	0 to 25	0 to 25
